Results from PubChem BioAssay AID1288 (Columbia University Molecular Screening Center, 2008).
Calls of active or inactive are those of the source. The rule behind the calls is not given here.

Assay: E-selectin induction blockers, endothelial cells – imaging, retest plus dose response, cell count, confirmation (AID 1288);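 note: 0% = stimulated vehicle wells and 100% = unstimulated vehicle wells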
Conditions: human endothelial cells, TNFa-induced E-selectin, imaging; at 2 µM; active compounds read high

| SMILES | inhibition |
| --- | --- |
| COc1cc(/C=C2\SC(=S)N(CC(=O)Nc3ccc(O)cc3)C2=O)cc(OC)c1OC | -1.6% (inactive) |
| Cn1cccc1/C=C1/C(=O)NC(=O)N(Cc2ccccc2)C1=O | 35.4% (inactive) |
| COc1ccc(NC(=O)c2cccnc2Cl)c(S(=O)(=O)N2CCOCC2)c1 | 6.27% (inactive) |
| O=C(c1ccc(Cl)cc1)N1CCCC(c2ccccc2)=N1 | 10% (inactive) |
| COc1ccc(/C(C)=N/OCC(=O)N2CC3(C)CC2CC(C)(C)C3)cc1 (centres undefined) | 17.2% (inactive) |
| CCN(CC)c1ccc(C2C(C(=O)OCCOC)=C(C)NC3=C2C(=O)CC(C)(C)C3)cc1 (centres undefined) | -4.2% (inactive) |
| Cc1cccc(C(=O)NNC(=O)Nc2ccccc2)c1 | -2.06% (inactive) |
| CCCCCn1c(SCC#N)nc2cc(C(=O)NCC3CCCO3)ccc2c1=O (centres undefined) | 7.32% (inactive) |
| Cc1nc2ccc(NC(=O)C3CCN(S(=O)(=O)c4cccs4)CC3)cc2s1 | 18.1% (inactive) |
| COc1ccc(-n2c(C)cc(C(=O)COc3ccc(C)nc3[N+](=O)[O-])c2C)cc1 | 31.4% (inactive) |
| Cc1ccc(NC(=O)Nc2ccc3c(c2)N(C)C(=O)CS3)nc1 | 3.21% (inactive) |
| CCCn1nnnc1SCC(=O)N1CCOCC1 | 20.5% (inactive) |
| CCC(C)c1ccccc1OCCCCN1CCCC1 (centres undefined) | -2.07% (inactive) |
| COC(=O)c1c(NC(=O)C2COc3ccccc3O2)sc2c1CCN(Cc1ccccc1)C2 (centres undefined) | 25.5% (inactive) |
| N#CCc1c(C#N)c(N)nc(N2CCN(c3ccc(F)cc3)CC2)c1C#N | 4.37% (inactive) |
| COc1ccccc1C1/C(=C(/O)c2ccc(C)cc2)C(=O)C(=O)N1CCN1CCOCC1 (centres undefined) | 6.7% (inactive) |
| O=C(CN1CCN(c2ccccc2F)CC1)c1c[nH]c2ccccc12 | -2.26% (inactive) |
| O=C(Nc1ccc(Cl)cc1)Nc1nnc(CSc2ccc(Cl)cc2)s1 | 6.9% (inactive) |
| Cc1cc(C(=O)CN2C(=O)CCC2=O)c(C)n1Cc1ccccc1 | 13.3% (inactive) |
| CC(c1ccco1)N(C(=O)C12CC3CC(CC(C3)C1)C2)c1ccccn1 (centres undefined) | 5.6% (inactive) |
| Cc1cc2cc(NC(=O)c3ccco3)ccc2[nH]1 | -3.69% (inactive) |
| COc1ccccc1-c1nc(-c2ccc(C)nc2OC)no1 | 0.65% (inactive) |
| CC(C)C(C(=O)O)N1CCS(=O)(=O)CC1 (centres undefined) | 7.68% (inactive) |
| CC(/C=C/c1ccco1)=N\NC(=O)c1cc(C)[nH]n1 | 12% (inactive) |
| CCOC(=O)Cc1c(C)nc2c(-c3ccccc3)c[nH]n2c1=O | 0.71% (inactive) |

| SMILES | inhibition |
| --- | --- |
| CN(c1ccc(C(=O)NCC2CCCO2)cc1)S(C)(=O)=O (centres undefined) | 6.07% (inactive) |
| Nc1cccc(-n2nncc2-c2ccc(Cl)cc2)c1 | 18.2% (inactive) |
| CCC1Sc2ccccc2N(CC(=O)NCc2ccc3c(c2)OCO3)C1=O (centres undefined) | 9.94% (inactive) |
| CCN(CC)c1ccc(NC(=O)COC(=O)/C=C/c2nc3ccccc3s2)cc1 | 15.5% (inactive) |
| COc1ccccc1N1CCN(C(=O)c2ccc(Br)s2)CC1 | 0.09% (inactive) |
| C=CCOc1c(Br)cc(CNn2nnnc2N)cc1OC | 3.16% (inactive) |
| CC(=O)C1=C(C)NC(SCc2cccc3ccccc23)=C(C#N)C1c1ccco1 (centres undefined) | 5.13% (inactive) |
| COc1cc(-c2nnc(COc3ccc4ccccc4c3)o2)cc(OC)c1OC | 5.08% (inactive) |
| CCN(CC)CCNC(=O)CS(=O)Cc1nc(-c2ccccc2Cl)oc1C (centres undefined) | 3.34% (inactive) |
| CC1Cc2cc(/C(O)=C3/C(=O)C(=O)N(CCCn4ccnc4)C3c3ccncc3)ccc2O1 (centres undefined) | 5.53% (inactive) |
| Cc1nnc(SCC(=O)N2CC(=O)Nc3ccccc32)n1C | 41% (inactive) |
| CCOC(=O)c1ccccc1NC(=O)c1ccc(N(C)S(C)(=O)=O)cc1 | 15.2% (inactive) |
| COc1ccc2cc(CN(CCO)C(=O)c3ccccc3F)c(=O)[nH]c2c1 | 12.6% (inactive) |
| O=C(Nc1ccccc1N1CCOCC1)c1ccc(Cl)nc1 | 3.97% (inactive) |
| O=C1CC(Sc2nnc(-c3ccccc3O)o2)C(=O)N1c1ccccc1 (centres undefined) | 9.02% (inactive) |
| Cc1nn(-c2ccccc2)c(Cl)c1CN(C(=O)CCl)c1cccc2ccccc12 | 14.8% (inactive) |
| Cc1nnc(SCC(=O)N(C)c2ccccc2)n1Cc1ccccc1 | 1.26% (inactive) |
| CCOC(=O)c1cc2c(ccn2C)n1CC(=O)N1CCC(Cc2ccccc2)CC1 | 4.26% (inactive) |
| CC(C)Cn1c(-c2cccs2)nc2ccccc21 | 25.7% (inactive) |
| COc1ccc(C2=NNC(c3cccs3)=Nc3ccc(OC)cc32)cc1 | 17.8% (inactive) |
| O=C(Nc1nnc(SCc2ccccc2)s1)c1cccc([N+](=O)[O-])c1 | 6.01% (inactive) |
| O=C(CSc1nnc(-c2cc(-c3cccs3)nc3ccccc23)o1)NC1CCCCC1 | 5.57% (inactive) |
| Cc1cc([N+](=O)[O-])nn1CC(=O)Nc1sc2c(c1C(N)=O)CCCC2 | 18.3% (inactive) |
| CC(C)CC1NC(=O)N(CC(=O)N2CCN(S(=O)(=O)c3ccc(Cl)cc3)CC2)C1=O (centres undefined) | -2.35% (inactive) |
| Cc1c(N=C/C=C2\N(C)c3ccccc3C2(C)C)c(=O)n(-c2ccccc2)n1C | 1.21% (inactive) |

| SMILES | inhibition |
| --- | --- |
| CC1=C(C(=O)N2CCC3(CC2)OCCO3)C2(CCC(C)CC2)OC1=O (centres undefined) | 6.34% (inactive) |
| Cc1noc(C)c1S(=O)(=O)Nc1ccc(C(=O)NC2CCCCC2C)cc1 (centres undefined) | 22.8% (inactive) |
| O=C(Cn1nnc(-c2ccc(Cl)cc2)n1)NC1CCN(Cc2ccccc2)CC1 | 11.8% (inactive) |
| COc1cc(C2C(C#N)=C(N)Oc3cc(C)n(CCc4ccccc4)c(=O)c32)cc2c1OCO2 (centres undefined) | 4.3% (inactive) |
| N#CC1=C(N)Oc2cc(Nc3ccccc3)ccc2C1c1ccncc1 (centres undefined) | 4.14% (inactive) |
| COc1ccccc1CNC(=O)CSc1nnc2ccc(-c3cccnc3)nn12 | 2.18% (inactive) |
| CC(C)CCNC(=O)C1CCN(c2nc3ccccc3o2)CC1 | 12.3% (inactive) |
| O=c1[nH]c2cc(NCCO)c([N+](=O)[O-])cc2[nH]1 | 15.2% (inactive) |
| COC(=O)c1cc2oc(C)cc2n1CC(=O)N1CCCc2ccccc21 | 9.68% (inactive) |
| CCn1nnnc1-c1ccc(OC)c(S(=O)(=O)NCc2ccccc2)c1 | 5.72% (inactive) |
| CCOCc1nnc(NC(=O)CCc2ccccc2)s1 | 9.8% (inactive) |
| Cc1cccc(C)c1NC(=O)CN(C)C(=O)/C=C/c1cccs1 | 1.62% (inactive) |
| CCOC(=O)C1C(c2cc(OC)c(O)c(OC)c2)NC(=S)NC1(O)C(F)(F)F (centres undefined) | 7.39% (inactive) |
| CCOC(=O)C1CCCN(C(=O)COC(=O)c2cc(=O)c3ccccc3o2)C1 (centres undefined) | 3.09% (inactive) |
| COc1cc(C2C(C#N)=C(N)Oc3c2oc(CO)cc3=O)cc(OC)c1OC (centres undefined) | 10.9% (inactive) |
| Cc1ccc(N2CCN(/N=C/c3cccs3)CC2)cc1 | 1.13% (inactive) |
| Cc1oc(-c2cccs2)nc1CSCC(=O)N1CCC2(CC1)OCCO2 | 2.86% (inactive) |
| CS(=O)(=O)c1ccc(Cl)c(NC(=O)c2ccc3ccccc3c2)c1 | 4.97% (inactive) |
| CCN1c2ccccc2-c2nc3ccccc3n2C1c1cccnc1 (centres undefined) | 1.05% (inactive) |
| c1ccc(-n2c(Sc3cnccn3)nnc2-c2cccs2)cc1 | 8.66% (inactive) |
| COc1ccc(C2C(C(=O)Nc3cccnc3)=C(C)Nc3nc(-c4cccs4)nn32)cc1 (centres undefined) | 7.57% (inactive) |
| CCOc1ccc(NC(=O)/C=C/c2ccc(OC)cc2)c([N+](=O)[O-])c1 | 13.8% (inactive) |
| COc1ccccc1NC(=S)N(Cc1ccco1)Cc1cc2cccc(C)c2[nH]c1=O | 30.6% (inactive) |
| CC(C)C(=O)N(c1ccc(F)cc1)C1C=CS(=O)(=O)C1 (centres undefined) | -2.25% (inactive) |
| O=C(Nc1nc(-c2ccncc2)cs1)c1ccc(S(=O)(=O)N2CCOCC2)cc1 | 1.3% (inactive) |

| SMILES | inhibition |
| --- | --- |
| CCn1cc(C(=O)NCc2ccco2)c(=O)c2cc(S(=O)(=O)N3CCc4ccccc4C3)ccc21 | 41.9% (inactive) |
| CCOc1cc2[nH]c(=O)n(CCCN3CCCC3=O)c(=O)c2cc1OCC | 17% (inactive) |
| Cc1ccc(CNC(=O)CCc2nc3ccccc3c(=O)[nH]2)cc1 | 15.6% (inactive) |
| CSc1cccc(NC(=O)C2CCCN(S(=O)(=O)c3ccc(F)cc3)C2)c1 (centres undefined) | 35.8% (inactive) |
| CC(C)Cc1nnc(NS(C)(=O)=O)s1 | 4.19% (inactive) |
| Cc1ccc(CNCC(O)(c2ccccc2)c2ccc(Cl)cc2)cc1 (centres undefined) | 5.94% (inactive) |
| COc1ccc2cc(S(=O)(=O)N3CCN(C)CC3)ccc2c1 | 16.8% (inactive) |
| COc1ccc(Cc2nnc(NC(=O)Cc3cccs3)s2)cc1 | 1.69% (inactive) |
| Cc1cc(C)c(C#N)c(=N)o1 | -5.81% (inactive) |
| CCC(=O)Nc1nnc(-c2ccccn2)o1 | 14.7% (inactive) |
| Clc1ccc(-c2nnc(-c3ccco3)o2)cc1 | 6.81% (inactive) |
| CCCCN(CCCC)S(=O)(=O)c1ccc(NC(=O)c2cccs2)cc1 | -4.73% (inactive) |
| CCn1c(SCc2nc(CC(=O)Nc3ccccc3OC)no2)nnc1-c1cccs1 | 7.75% (inactive) |
| CCn1c(SCC(=O)Nc2ccccc2)nnc1C1CCCCC1 | 2.46% (inactive) |
| CCC(=O)c1ccc(N2CCOCC2)c(F)c1 | 10.3% (inactive) |
| Clc1ccc(CNc2ccc3nnc(-c4ccccc4)n3n2)cc1 | 0.04% (inactive) |
| COc1ccc(-c2csc3ncnc(Oc4cccc5ccc(C)nc45)c23)cc1 | 5.48% (inactive) |
| Cc1ccc(C)c(N(CC(=O)NCCSCc2ccco2)S(C)(=O)=O)c1 | 6.59% (inactive) |
| COc1ccc(-n2c(C)c3c(OC)cccc(=O)c3c2C)cc1 | -2.64% (inactive) |
| COC(=O)c1c(-c2ccccc2)csc1NC(=O)c1ccco1 | 14.7% (inactive) |
| COC(=O)c1cc2ccsc2n1Cc1nc(-c2cccc(Cl)c2)oc1C | -2.86% (inactive) |
| COc1cc(NC(=O)CN2CCC(C)CC2)c(C)cc1[N+](=O)[O-] | 8.41% (inactive) |
| CCOC(=O)Cc1nnc(NC(=O)CSc2ccc(Cl)cc2)s1 | 2.82% (inactive) |
| CCOc1ccc(NC(=O)COC(=O)C23CC4CC(CC(C4)C2)C3)c([N+](=O)[O-])c1 | 1.77% (inactive) |
